Measured values reported in ChEMBL document CHEMBL4823245, “Development of an In Silico Prediction Model for P-glycoprotein Efflux Potential in Brain Capillary Endothelial Cells toward the Prediction of Brain Penetration” (J Med Chem, 2021).

Columns and labels:
[1] = Ratio of drug concentration in brain to plasma of P-gp knock out Sprague-Dawley rat
[2] = Unbound plasma concentration in P-gp knock out Sprague-Dawley rat at 5 mg/ml/kg, po measured upto 4 hrs by LC-MS analysis
[3] = Unbound brain-to-plasma concentration ratio in P-gp knock out Sprague-Dawley rat
[4] = Unbound brain concentration in P-gp knock out Sprague-Dawley rat at 5 mg/ml/kg, po measured upto 4 hrs by LC-MS analysis; settings: in vivo

CC(C)(C)NC(=O)[C@@H]1C[C@@H]2CCCC[C@@H]2CN1C[C@@H](O)[C@H](Cc1ccccc1)NC(=O)[C@H](CC(N)=O)NC(=O)c1ccc2ccccc2n1
Kp ([1]; brain): 0.067
fraction unbound at 4 h ([2]; plasma): 0.005
Kp uu ([3]; brain): 0.014
Fu [4]: 0.006

O=c1[nH]c2ccccc2n1CCCN1CCC(n2c(=O)[nH]c3cc(Cl)ccc32)CC1 [DOMPERIDONE]
fraction unbound at 4 h ([2]; in vivo): 0.029
Fu [4]: 0.017

COc1cc2nc(N3CCN(C(=O)c4ccco4)CC3)nc(N)c2cc1OC [PRAZOSIN]
Kp ([1]; brain/plasma): 0.247
fraction unbound at 4 h ([2]; plasma): 0.264
Kp uu ([3]; brain/plasma): 0.164

Cc1nc(Nc2ncc(C(=O)Nc3c(C)cccc3Cl)s2)cc(N2CCN(CCO)CC2)n1.O [DASATINIB]
Kp ([1]; brain): 0.061
fraction unbound at 4 h ([2]; plasma): 0.026
Kp uu ([3]; brain): 0.016
Fu [4]: 0.013

Clc1ccc2c(c1)CCc1cccnc1C2=C1CCNCC1 [DESLORATADINE]
fraction unbound at 4 h ([2]; plasma): 0.19
Kp uu ([3]; brain/plasma): 0.061

CC(C)N(CCC(C(N)=O)(c1ccccc1)c1ccccn1)C(C)C (configuration not stated) [DISOPYRAMIDE]
Kp ([1]; brain): 1.02
fraction unbound at 4 h ([2]; in vivo): 0.669
Kp uu ([3]; brain): 0.036
Fu [4]: 0.491

COc1ccc(CCN2CCC(Nc3nc4ccccc4n3Cc3ccc(F)cc3)CC2)cc1 [ASTEMIZOLE]
Kp ([1]; brain): 38.9
fraction unbound at 4 h ([2]; in vivo): 0.011
Kp uu ([3]; brain): 0.577
Fu [4]: 0.004

C[C@H]1O[C@@H](O[C@H]2[C@@H](O)C[C@H](O[C@H]3[C@@H](O)C[C@H](O[C@H]4CC[C@@]5(C)[C@H](CC[C@@H]6[C@@H]5C[C@@H](O)[C@]5(C)[C@@H](C7=CC(=O)OC7)CC[C@]65O)C4)O[C@@H]3C)O[C@@H]2C)C[C@H](O)[C@@H]1O [DIGOXIN]
fraction unbound at 4 h ([2]; in vivo): 0.583

CN(C)CCc1c[nH]c2ccc(C[C@H]3COC(=O)N3)cc12 [ZOLMITRIPTAN]
Kp ([1]; brain): 0.043
fraction unbound at 4 h ([2]; in vivo): 0.942
Kp uu ([3]; brain): 0.035
Fu [4]: 1

C[C@@H]1C[C@H]2[C@@H]3CCC4=CC(=O)C=C[C@]4(C)[C@@]3(F)[C@@H](O)C[C@]2(C)[C@@]1(O)C(=O)CO [DEXAMETHASONE]
fraction unbound at 4 h ([2]; plasma): 0.159

Cc1c(O)cccc1C(=O)N[C@@H](CSc1ccccc1)[C@H](O)CN1C[C@H]2CCCC[C@H]2C[C@H]1C(=O)NC(C)(C)C
fraction unbound at 4 h ([2]; plasma): 0.003
Kp uu ([3]; brain/plasma): 0.007

Cc1ccc(NC(=O)c2ccc(CN3CCN(C)CC3)cc2)cc1Nc1nccc(-c2cccnc2)n1 [IMATINIB]
Kp uu ([3]; brain/plasma): 0.041

Cc1nc2n(c(=O)c1CCN1CCC(c3noc4cc(F)ccc34)CC1)CCCC2 [RISPERIDONE]
Kp ([1]; brain): 1.56
Fu ([2]; in vivo, 4 h): 0.033
Kp uu ([3]; brain/plasma): 1.38
Fu [4]: 0.12

CC[C@H]1OC(=O)[C@H](C)[C@@H](O[C@H]2C[C@@](C)(OC)[C@@H](O)[C@H](C)O2)[C@H](C)[C@@H](O[C@@H]2O[C@H](C)C[C@H](N(C)C)[C@H]2O)[C@](C)(OC)C[C@@H](C)C(=O)[C@H](C)[C@@H](O)[C@]1(C)O [CLARITHROMYCIN]
Kp ([1]; brain): 1.96
fraction unbound at 4 h ([2]; in vivo): 0.377
Kp uu ([3]; brain): 0.014
Fu [4]: 0.113

CC(C)CN(C[C@@H](O)[C@H](Cc1ccccc1)NC(=O)O[C@H]1CCOC1)S(=O)(=O)c1ccc(N)cc1
fraction unbound at 4 h ([2]; plasma): 0.129

CCN(CC)CCNC(=O)c1cc(Cl)c(N)cc1OC [METOCLOPRAMIDE]
Kp ([1]; brain): 5.05
fraction unbound at 4 h ([2]; in vivo): 0.677
Kp uu ([3]; brain): 2.45
Fu [4]: 0.817

C=C[C@H]1C[N@@]2CC[C@H]1C[C@@H]2[C@@H](O)c1ccnc2ccc(OC)cc12 [QUINIDINE]
Kp uu ([3]; brain): 0.065

O=C(O)CCCN1CCC(OC(c2ccc(Cl)cc2)c2ccccn2)CC1 (configuration not stated)
Kp ([1]; brain/plasma): 0.031
fraction unbound at 4 h ([2]; plasma): 0.642
Kp uu ([3]; brain/plasma): 0.018

CN1CC[C@H](c2c(O)cc(O)c3c(=O)cc(-c4ccccc4Cl)oc23)[C@H](O)C1 [ALVOCIDIB]
Kp ([1]; brain/plasma): 0.451
fraction unbound at 4 h ([2]; plasma): 0.051
Kp uu ([3]; brain/plasma): 0.234

CC[C@H](CO)Nc1nc(NCc2ccccc2)c2ncn(C(C)C)c2n1 [SELICICLIB]
Kp ([1]; brain/plasma): 1.26
fraction unbound at 4 h ([2]; plasma): 0.048
Kp uu ([3]; brain/plasma): 0.205

C[C@@H](Oc1cc(-c2cnn(C3CCNCC3)c2)cnc1N)c1c(Cl)ccc(F)c1Cl [CRIZOTINIB]
Kp ([1]; brain/plasma): 5.55
fraction unbound at 4 h ([2]; plasma): 0.03
Kp uu ([3]; brain/plasma): 0.017

CCN(CC)CCNC(=O)c1c(C)[nH]c(/C=C2\C(=O)Nc3ccc(F)cc32)c1C [SUNITINIB]
Kp ([1]; brain/plasma): 0.481
fraction unbound at 4 h ([2]; plasma): 0.007
Kp uu ([3]; brain/plasma): 0.414

COc1cc([C@@H]2c3cc4c(cc3[C@@H](O[C@@H]3O[C@@H]5CO[C@@H](C)O[C@H]5[C@H](O)[C@H]3O)[C@H]3COC(=O)[C@H]23)OCO4)cc(OC)c1O [ETOPOSIDE]
Kp ([1]; brain): 0.037
fraction unbound at 4 h ([2]; in vivo): 0.357
Kp uu ([3]; brain): 0.024
Fu [4]: 0.539

Cc1nc2n(c(=O)c1CCN1CCC(c3noc4cc(F)ccc34)CC1)CCCC2O (configuration not stated) [PALIPERIDONE]
Kp ([1]; brain/plasma): 0.867
fraction unbound at 4 h ([2]; plasma): 0.047
Kp uu ([3]; brain/plasma): 0.443

COc1ccc2c(c1)c(CC(=O)O)c(C)n2C(=O)c1ccc(Cl)cc1 [INDOMETHACIN]
Kp ([1]; brain): 0.009
fraction unbound at 4 h ([2]; plasma): 0.008
Kp uu ([3]; brain): 0.074
Fu [4]: 0.048
